Measurements taken from PubChem BioAssay (NCI).
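Tested at 5 concentrations; 48 h exposure; 96-well plates; endpoints linearly interpolated, else capped at highest concentration. TGI: total growth inhibition.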

Tests used:
Assay in all cases: NCI tumour cell line growth inhibition, 48 h
786-0 renal = test system: 786-0 renal
A498 renal = test system: A498 renal
A549 NSCLC = test system: A549 NSCLC
ACHN renal = test system: ACHN renal
BT-549 breast = test system: BT-549 breast
CAKI-1 renal = test system: CAKI-1 renal
CCRF-CEM leukemia = test system: CCRF-CEM leukemia
COLO 205 colon = test system: COLO 205 colon
DU-145 prostate = test system: DU-145 prostate
EKVX NSCLC = test system: EKVX NSCLC
HCT-116 colon = test system: HCT-116 colon
HCT-15 colon = test system: HCT-15 colon
HL-60(TB) leukemia = test system: HL-60(TB) leukemia
HOP-92 NSCLC = test system: HOP-92 NSCLC
HS 578T breast = test system: HS 578T breast
HT29 colon = test system: HT29 colon
IGROV1 ovarian = test system: IGROV1 ovarian
K-562 leukemia = test system: K-562 leukemia
KM12 colon = test system: KM12 colon
LOX IMVI melanoma = test system: LOX IMVI melanoma
M14 melanoma = test system: M14 melanoma
MCF7 breast = test system: MCF7 breast
MDA-MB-231 breast = test system: MDA-MB-231 breast
MDA-MB-435 = test system: MDA-MB-435
MDA-N = test system: MDA-N
MOLT-4 leukemia = test system: MOLT-4 leukemia
NCI-H226 lung = test system: NCI-H226 lung
NCI-H23 lung = test system: NCI-H23 lung
NCI-H460 lung = test system: NCI-H460 lung
NCI-H522 lung = test system: NCI-H522 lung
NCI/ADR-RES ovarian = test system: NCI/ADR-RES ovarian
OVCAR-3 ovarian = test system: OVCAR-3 ovarian
OVCAR-4 ovarian = test system: OVCAR-4 ovarian
OVCAR-5 ovarian = test system: OVCAR-5 ovarian
OVCAR-8 ovarian = test system: OVCAR-8 ovarian
PC-3 prostate = test system: PC-3 prostate
RPMI-8226 leukemia = test system: RPMI-8226 leukemia
RXF 393 renal = test system: RXF 393 renal
SF-268 CNS = test system: SF-268 CNS
SF-295 CNS = test system: SF-295 CNS
SF-539 CNS = test system: SF-539 CNS
SK-MEL-2 melanoma = test system: SK-MEL-2 melanoma
SK-MEL-5 melanoma = test system: SK-MEL-5 melanoma
SK-OV-3 ovarian = test system: SK-OV-3 ovarian
SN12C renal = test system: SN12C renal
SNB-19 CNS = test system: SNB-19 CNS
SNB-75 CNS = test system: SNB-75 CNS
SR leukemia = test system: SR leukemia
SW-620 colon = test system: SW-620 colon
T-47D breast = test system: T-47D breast
TK-10 renal = test system: TK-10 renal
U251 CNS = test system: U251 CNS
UACC-257 melanoma = test system: UACC-257 melanoma
UACC-62 melanoma = test system: UACC-62 melanoma
UO-31 renal = test system: UO-31 renal
HCC-2998 colon = test system: HCC-2998 colon
HOP-62 NSCLC = test system: HOP-62 NSCLC
MALME-3M melanoma = test system: MALME-3M melanoma
SK-MEL-28 melanoma = test system: SK-MEL-28 melanoma

## CSc1ncc2c(n1)-c1ccccc1OC2N1CCCCC1 (stereo not drawn)
786-0 renal
  TGI: > 100 µM
A498 renal
  TGI: 49.9 µM
A549 NSCLC
  TGI: > 100 µM
ACHN renal
  TGI: > 100 µM
BT-549 breast
  TGI: 86.2 µM
CAKI-1 renal
  TGI: 66.3 µM
CCRF-CEM leukemia
  TGI: 49.8 µM
COLO 205 colon
  TGI: > 100 µM
DU-145 prostate
  TGI: > 100 µM
EKVX NSCLC
  TGI: > 100 µM
HCT-116 colon
  TGI: > 100 µM
HCT-15 colon
  TGI: 84.5 µM
HL-60(TB) leukemia
  TGI: 49 µM
HOP-92 NSCLC
  TGI: 84.2 µM
HS 578T breast
  TGI: 99.2 µM
HT29 colon
  TGI: > 100 µM
IGROV1 ovarian
  TGI: > 100 µM
K-562 leukemia
  TGI: > 100 µM
KM12 colon
  TGI: > 100 µM
LOX IMVI melanoma
  TGI: 46.7 µM
M14 melanoma
  TGI: > 100 µM
MCF7 breast
  TGI: 87.6 µM
MDA-MB-231 breast
  TGI: > 100 µM
MDA-MB-435
  TGI: 87.2 µM
MDA-N
  TGI: > 100 µM
MOLT-4 leukemia
  TGI: 58 µM
NCI-H226 lung
  TGI: > 100 µM
NCI-H23 lung
  TGI: > 100 µM
NCI-H460 lung
  TGI: > 100 µM
NCI-H522 lung
  TGI: 42.3 µM
NCI/ADR-RES ovarian
  TGI: > 100 µM
OVCAR-3 ovarian
  TGI: > 100 µM
OVCAR-4 ovarian
  TGI: > 100 µM
OVCAR-5 ovarian
  TGI: > 100 µM
OVCAR-8 ovarian
  TGI: > 100 µM
PC-3 prostate
  TGI: > 100 µM
RPMI-8226 leukemia
  TGI: 65.9 µM
RXF 393 renal
  TGI: > 100 µM
SF-268 CNS
  TGI: > 100 µM
SF-295 CNS
  TGI: > 100 µM
SF-539 CNS
  TGI: > 100 µM
SK-MEL-2 melanoma
  TGI: 96.6 µM
SK-MEL-5 melanoma
  TGI: 45.8 µM
SK-OV-3 ovarian
  TGI: > 100 µM
SN12C renal
  TGI: > 100 µM
SNB-19 CNS
  TGI: > 100 µM
SNB-75 CNS
  TGI: > 100 µM
SR leukemia
  TGI: 53.2 µM
SW-620 colon
  TGI: > 100 µM
T-47D breast
  TGI: 68.2 µM
TK-10 renal
  TGI: 73.2 µM
U251 CNS
  TGI: > 100 µM
UACC-257 melanoma
  TGI: > 100 µM
UACC-62 melanoma
  TGI: > 100 µM
UO-31 renal
  TGI: > 100 µM

## COc1cc(S(=O)(=O)Nc2nc(-c3ccc(N=Cc4cccs4)cc3)cs2)ccc1Cl
786-0 renal
  TGI: > 100 µM
A498 renal
  TGI: > 100 µM
A549 NSCLC
  TGI: > 100 µM
ACHN renal
  TGI: > 100 µM
BT-549 breast
  TGI: > 100 µM
CAKI-1 renal
  TGI: > 100 µM
CCRF-CEM leukemia
  TGI: > 100 µM
COLO 205 colon
  TGI: > 100 µM
DU-145 prostate
  TGI: > 100 µM
EKVX NSCLC
  TGI: > 100 µM
HCC-2998 colon
  TGI: > 100 µM
HCT-116 colon
  TGI: > 100 µM
HCT-15 colon
  TGI: > 100 µM
HL-60(TB) leukemia
  TGI: > 100 µM
HOP-62 NSCLC
  TGI: > 100 µM
HOP-92 NSCLC
  TGI: > 100 µM
HS 578T breast
  TGI: > 100 µM
HT29 colon
  TGI: > 100 µM
IGROV1 ovarian
  TGI: > 100 µM
K-562 leukemia
  TGI: > 100 µM
KM12 colon
  TGI: > 100 µM
LOX IMVI melanoma
  TGI: > 100 µM
M14 melanoma
  TGI: > 100 µM
MALME-3M melanoma
  TGI: > 100 µM
MCF7 breast
  TGI: > 100 µM
MDA-MB-231 breast
  TGI: > 100 µM
MDA-MB-435
  TGI: > 100 µM
MDA-N
  TGI: > 100 µM
MOLT-4 leukemia
  TGI: 98.7 µM
NCI-H226 lung
  TGI: > 100 µM
NCI-H23 lung
  TGI: > 100 µM
NCI-H460 lung
  TGI: > 100 µM
NCI-H522 lung
  TGI: > 100 µM
NCI/ADR-RES ovarian
  TGI: > 100 µM
OVCAR-3 ovarian
  TGI: 78.6 µM
OVCAR-4 ovarian
  TGI: > 100 µM
OVCAR-5 ovarian
  TGI: > 100 µM
OVCAR-8 ovarian
  TGI: > 100 µM
PC-3 prostate
  TGI: > 100 µM
RXF 393 renal
  TGI: 49.6 µM
SF-268 CNS
  TGI: > 100 µM
SF-295 CNS
  TGI: > 100 µM
SF-539 CNS
  TGI: > 100 µM
SK-MEL-2 melanoma
  TGI: > 100 µM
SK-MEL-28 melanoma
  TGI: > 100 µM
SK-MEL-5 melanoma
  TGI: > 100 µM
SK-OV-3 ovarian
  TGI: > 100 µM
SN12C renal
  TGI: 64.1 µM
SNB-19 CNS
  TGI: > 100 µM
SNB-75 CNS
  TGI: > 100 µM
SR leukemia
  TGI: 57 µM
SW-620 colon
  TGI: > 100 µM
T-47D breast
  TGI: > 100 µM
TK-10 renal
  TGI: > 100 µM
U251 CNS
  TGI: > 100 µM
UACC-257 melanoma
  TGI: > 100 µM
UACC-62 melanoma
  TGI: 48.7 µM
UO-31 renal
  TGI: > 100 µM
